Reference: PMC9631117, “Epitope length variants balance protective immune responses and viral escape in HIV-1 infection” (Cell Reports, 2022)
Entries after “also recorded” stand apart in the source; their conditions may differ.

Assays:
[1] = tested on: TAP; assay: TAP-peptide competitive binding assay; conditions: result in words; for Normalized TAP affinity relative to KK10: competitive binding, Figure 1E
[2] = tested on: PBMCs isolated from HLA-B*27:05+ patients with chronic HIV-1 infection; assay: Ex vivo IFN-γ ELISpot; format: cell-based, human; conditions: PBMCs of ten HLA-B*27:05+ patients, result in words
[3] = tested on: KK10-specific CTL clone G12C; assay: Competition IFN-γ ELISpot with KK10-specific CTL clone G12C and T2-HLA-B*27:05 cells; format: cell-based, human; conditions: result in words; for Inhibition of the G12C response to KK10 at the amounts produced by proteasomal digestion: comparison of competition ELISpot with the processing data; for Effect on IFN-γ release by G12C in response to KK10 at the EC50 concentration: peptide pre-incubated 30 min at 37°C with T2-HLA-B*27:05 cells at molar ratios 1-800 relative to KK10
Method: G12C cells were expanded as described previously([Iversen et al., 2006]) and rested for 2 days in fresh medium supplemented with IL-2 (20 IU/mL) and IL-15 (25 ng/mL) before testing in IFN-γ ELISpot assays (Merck Millipore) ([Tenzer et al., 2009], [2014]). TAP-deficient T2 cells were transfected with HLA-B^∗27:05 to generate T2-HLA-B^∗27:05 cells ([Kuipers et al., 1996]). These cells were used in competition assays to minimize the potentially confounding effects of internally loaded peptides and other HLA class I and class II molecules. […] The EC50 concentration was determined in preliminary ELISpot assays as the concentration required to elicit half-maximal IFN-γ production ([Tenzer et al., 2009], [2014]). Samples were tested in triplicate or quadruplicate. G12C responses were expressed as spot-forming units per 10^6 cells. Standard ex vivo IFN-γ ELISpot assays were performed as described previously ([Tenzer et al., 2009], [2014]).

[4] = target: HLA-B*27:05 (Homo sapiens, UniProt P01889, D138H/D201E/E176V/E204Q/G107R/H137Y/K202T/N104T/N87E/Q56L/Q94K/R106L/R155S/R180L/S101D/S121N/S48T/Y140D/Y33H/Y91C); assay: Refolding of epitope-form peptides with HLA-B*27:05 heavy chain and β2m (heterotrimer formation); format: binding; conditions: rapid dilution refold, size exclusion, mass spectrometry, result in words
Source text: HLA-B^∗27:05 heavy chain and β2M proteins were expressed and purified as described previously ([Burgess, 2009]; [Tenzer et al., 2009]) and refolded with peptide using a rapid dilution method ([Tsumoto et al., 2003]). Heterotrimeric complexes were purified via size exclusion using a HiLoad 26/600 Superdex 75 pg column fitted to an AKTA Purifier FPLC System (GE Healthcare). Eluent fractions corresponding to absorbance peaks were examined via SDS-PAGE. Heterotrimeric complexes were then purified again via size exclusion using a Superdex 75 10/300 GL column fitted to an AKTA Purifier FPLC System (GE Healthcare). Correctly refolded heterotrimers were concentrated to > 10 mg/mL for crystallization trials using Amicon Ultra-0.5 Centrifugal Filter Units with Ultracel-10 Membranes (Merck Millipore). Optimal protein concentrations were determined for each complex using a PCT Pre-Crystallization Test (Hampton Research). […] Crystallization was carried out using the sitting-drop vapor-diffusion method. Briefly, crystallization screen reagents (Hampton Research) were dispensed into a CrystalQuick 96 Well Sitting Drop Plate (Greiner) using a Hydra eDrop II (Thermo Fisher Scientific), and 10 nL of protein was dispensed as a sitting drop in each well after mixing with 10 nL of the corresponding well buffer using a Microsys Liquid Handler (Cartesian Technologies). Crystal screens were stored at 4°C using a Protein Crystallization Imager (Formulatrix). Crystals obtained from the screens were immersed in reservoir buffer containing 20% glycerol as a cryoprotectant and vitrified at 100 K in liquid nitrogen. X-ray diffraction was carried out on beamlines at the European Synchrotron Radiation Facility, Grenoble, France (www.esrf.eu) or at the Diamond Light Source, Didcot, UK (www.diamond.ac.uk).

[5] = tested on: ERAP1/2; conditions: incubation with ERAP1/2 for 140 min, Figure 1G, result in words
[6] = tested on: KIR3DL1*001; assay: KIR3DL1*001 binding assay (dextramer staining of KIR3DL1*001-transfected BA/F3 cells); conditions: peptide complexed with HLA-B*27:05 dextramer; Figure 7A; result in words
Method: Each line was stained with LIVE/DEAD Fixable Violet (Thermo Fisher Scientific). […] The parental line was used as a control for each condition. Samples were tested in duplicate.

KRWIIL [KL6]
Normalized TAP affinity relative to KK10 [1]: exceeded that of the immunodominant HLA-B^∗57:01/B^∗5703-restricted HIV-1 epitope TW10 | Peptide-specific IFN-γ release (immunogenicity) [2]: poor immunogenicity | Inhibition of the G12C response to KK10 at the amounts produced by proteasomal digestion [3]: more than halve the G12C response to KK10

KRWII [KI5]
Normalized TAP affinity relative to KK10 [1]: lowest affinities | Formation of heterotrimeric complexes with HLA-B*27:05 heavy chain and β2m in refolds [4]: refolded inefficiently | Formation of heterotrimeric complexes with HLA-B*27:05 heavy chain and β2m in refolds ([4]; listed as KL5): formation of heterotrimeric complexes | Peptide-specific IFN-γ release (immunogenicity) [2]: poor immunogenicity | Effect on IFN-γ release by G12C in response to KK10 at the EC50 concentration [3]: less striking than those of the longer minitopes

GEIYKRWIILGLNKI [GI15]
ERAP1/2 trimming (reduction in abundance) [5]: trimmed significantly more than other epitope forms

KRWIILGL [KL8]
Normalized TAP affinity relative to KK10 [1]: exceeded that of the immunodominant HLA-B^∗57:01/B^∗5703-restricted HIV-1 epitope TW10 | TAP-adjusted production of KK10 epitope forms (predicted relative abundance in the ER) ([1]; proteasomal production adjusted for TAP interactions, Figure 1F): dominant minitope | Peptide-specific IFN-γ release (immunogenicity) [2]: Specific IFN-γ release was identified | Inhibition of the G12C response to KK10 at the amounts produced by proteasomal digestion [3]: more than halve the G12C response to KK10 | KIR3DL1 binding relative to KK10 [6]: Further reductions

KRWIILG [KG7]
Normalized TAP affinity relative to KK10 [1]: exceeded that of the immunodominant HLA-B^∗57:01/B^∗5703-restricted HIV-1 epitope TW10 | Peptide-specific IFN-γ release (immunogenicity) [2]: poor immunogenicity

KRWI [KI4]
Normalized TAP affinity relative to KK10 [1]: lowest affinities | Formation of heterotrimeric complexes with HLA-B*27:05 heavy chain and β2m in refolds [4]: formation of heterotrimeric complexes; also recorded: refolded inefficiently | Peptide-specific IFN-γ release (immunogenicity) [2]: poor immunogenicity | Effect on IFN-γ release by G12C in response to KK10 at the EC50 concentration [3]: less striking than those of the longer minitopes

KRWIIMGL [KL8-M]
KIR3DL1 binding relative to KK10 [6]: marginally increased binding to KIR3DL1
